From patent US4452807A, “(R,S)-1-(3-Hydroxy-4-methoxybenzoyl)-3-hydroxy-2-pyrrolidinone intermediates therefor and use for treating cerebral insufficiency” (Hoffmann-La Roche Inc., priority 1981, dated 1984)

Experiment: Acute toxicity, single oral administration to mice
Details: mouse, in vivo, p.o.
From the text: Moreover, the Table contains data concerning the acute toxicity, that is, LD50 in mg/kg in the case of single oral administration to mice.

## COc1ccc(C(=O)N2CC[C@@H](O)C2=O)cc1O [R, (R)-1-(3-hydroxy-4-methoxybenzoyl)-3-hydroxy-2-pyrrolidinone]
  LD50: > 5000 mg/kg

## COc1ccc(C(=O)N2CCC(O)C2=O)cc1O (racemic) [R,S, (R,S)-1-(3-hydroxy-4-methoxybenzoyl)-3-hydroxy-2-pyrrolidinone]
  LD50: > 5000 mg/kg

## COc1ccc(C(=O)N2CC[C@H](O)C2=O)cc1O [S, (S)-1-(3-hydroxy-4-methoxybenzoyl)-3-hydroxy-2-pyrrolidinone]
  LD50: > 4000 mg/kg
